# Reference: patent US4738979A, “α2 -blocking derivatives of imidazole” (G. D. Searle & Co., priority 1985, dated 1988)
# Experiments:
# α2 -adrenergic receptors = target: T1, α2 -adrenergic receptors (Cavia porcellus, UniProt Q60474); test: α2 antagonist and α2 agonist activity in isolated guinea pig ileum (clonidine); settings: for EC50: 50% of maximum inhibition obtained with clonidine, read-out: α2 Agonist Activity (-log ED50) (converted); for Kb: versus clonidine, read-out: α2 Antagonist Activity (pA2) (converted)
# T1 construct: from tissue; host or cells: isolated guinea pig ileum
# T1 sequence (Q60474 1-464): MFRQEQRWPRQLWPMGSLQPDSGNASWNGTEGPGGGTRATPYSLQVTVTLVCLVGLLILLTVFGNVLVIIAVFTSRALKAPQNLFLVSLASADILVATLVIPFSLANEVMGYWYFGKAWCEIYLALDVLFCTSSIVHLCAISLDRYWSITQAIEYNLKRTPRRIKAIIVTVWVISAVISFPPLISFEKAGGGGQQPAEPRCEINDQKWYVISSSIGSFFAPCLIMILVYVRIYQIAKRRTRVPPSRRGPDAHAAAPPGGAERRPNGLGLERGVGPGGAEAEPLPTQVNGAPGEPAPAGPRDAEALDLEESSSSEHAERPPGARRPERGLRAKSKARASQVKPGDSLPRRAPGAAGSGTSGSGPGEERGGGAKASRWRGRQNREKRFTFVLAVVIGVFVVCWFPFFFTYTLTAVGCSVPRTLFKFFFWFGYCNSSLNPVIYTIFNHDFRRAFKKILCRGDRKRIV
# Method: The α2 antagonist and α2 agonist activity of the compounds according to the invention was determined upon isolated organs according to a model described by G. M. Drews, Br. J. Pharmaco., 64, 293-300 (1978).
# This model is based upon the principle that the stimulation of the cholinergic nervous transmissions of the guinea pig ileum causes the liberation of acetyl choline, which in turn causes contractions of the ileum.
# The stimulation of the α2 -adrenergic receptors inhibits the activity of the cholinergic nerve and consequently reduces all response resulting from a timulation of the latter. Thus the contractions of the ileum induced by electric stimulation of the tissue are inhibited by clonidine, an α2 agonist, in proportion to the dose. This inhibition is specifically displaced by the α2 antagonists and not by the α1 antagonists.
# The method utilized can be summarized as follows: three dose-response curves to clonidine are established at an interval of 60 minutes. Two concentrations of the product to be tested are added successively 10 minutes before the realization of the second and third clonidine curves. Next, after washing, a dose-response curve is established with the product to be tested.
# The dose-response curves are calculated as a percentage of the maximum inhibition obtained for the first curve. In this system the products having an α2 antagonist activity displace the dose-response curve to clonidine. The α2 antagonist activity, expressed in pA2 value, shown in column 4, is calculated according to J. M. Van Rossum, Arch. Int. Pharmacodyn., 143, 299-300 (1963).
# A reduction of the contractions induced by the tested product alone indicates an α2 agonist effect. This activity is expressed in--log ED50 (the--logarithm of the concentration of the product giving 50% of the maximum inhibition obtained with clonidine).
# The higher the pA2 value, the higher the α2 antagonist activity; the higher the--log ED50 value (i.e., the pA2 agonist activity), the higher the α2 agonist activity.
# [1] = tested on: α2 adrenergic receptors of the central nervous system; test: inhibition of the antihypertensive action of clonidine in spontaneously hypertensive rats (SHR); assay type: in vivo, rat; settings: 1 mg/kg p.o., clonidine 50 μg/kg s.c.
# Method: In the first study, carried out upon unanaesthetized spontaneously hypertensive rats (SHR rats), the ability of the compounds of the present invention to inhibit the antihypertensive action of clonidine was determined.
# The antihypertensive activity of clonidine results from an interaction with α2 adrenergic receptors of the central nervous system, i.e., central antihypertensive actions.
# In this test, two groups of SHR rats are utilized as follows. In the first group, prior to subcutaneous administration of clonidine (50 μg/kg), the SHR rats are treated with the compound to be tested (1 mg/kg p.o.) dissolved in a saline vehicle. The second group (control group) of SHR rats are treated with the saline vehicle only, prior to subcutaneous administration of clonidine.
# The arterial pressure is measured in the region of the median coccygeal artery according to the method of J. Roba, A. F. DeSchaepdrijver, Exp. Anim., 4, 147-162 (1971).
# The results of this assay summarized in Table II, column 5, are expressed as a percentage of inhibition of the effect of clonidine.
# [2] = tested on: peripheral vascular α2 receptors; test: inhibition of the pressor effect of BHT 920 in pithed rats; assay type: in vivo, rat; settings: 1 mg/kg i.v., BHT 920 30 μg/kg i.v.
# Method: The α2 antagonist activity of the compounds is evaluated by the inhibition of the pressor effect (blood pressure elevation), of a specific α2 agonist agent, 4H-Thiazolo[4,5-b]azetin-2-amine, 5,6,7,8-tetrahydro-6-(2-propenyl)-, dihydrochloride, designated as BHT 920 at a concentration of 30 μg/kg i.v.) according to a method described by J. C. Van Meel et al., J. Pharmacol. Exp. Ther., 219, 760-767 (1981).
# The compound to be tested is administered at 1 mg/kg i.v. The ability of the compounds tested to antagonize the pressor effects of BHT 920 is determined and expressed as percentage of inhibition. Any direct hypertensive (=α2 agonist) activity of the compounds under test can likewise be detected.
# α1 -adrenergic receptors = test: binding to α1-adrenergic receptors on rat brain homogenates (3H-WB 4101); settings: 1.6 nM 3H-WB 4101
# Method: The activity of the compounds according to the invention with respect to binding of the α-adrenergic receptors was determined in vitro according to a method deriving from the works of B. R. Rouot et al., Life Sci., 25, 769 (1979) and of D. U'Prichard et al., Mol. Pharmacol., 13, 454 (1977). This method consists in measuring the binding to the receptor on rat brain homogenates, by marking by means of a specific tritriated ligand placed in competition with the product to be tested.
# In the presenct case the binding to the α1 -adrenergic receptors was measured by means of 1.6 nM of ^3 H-WB 4101 and the binding to the α2 -adrenergic receptors by means of 0.7 nM of ^3 H-p. aminoclonidine, the non-specific binding being determined by 1,000 nM of phentolamine. The results are given in Table II, column 3, and are expressed in terms of percentage of inhibition of the specific binding of 10^-7 molar compound concentration.
# (2) The specific binding is the total binding less the nonspecific
# binding. The total binding is the binding in the absence of nonradioactiv
# drug. The nonspecific binding is the binding in the presence of 1,000 nM
# of phentolamine. The products of the invention are tested at a
# concentration of 10^-7 molar.
Compound,EC50 (α2 -adrenergic receptors) [nM],Kb (α2 -adrenergic receptors) [nM],α2 Antagonist (% Inhibition of the Antihypertension of Clonidine) [1] [%],"α2 antagonist activity, inhibition of pressor effect of BHT 920 (in words) [2]",% Inhibition of the Specific Binding at 10^-7 M for α1 Recep. (α1 -adrenergic receptors) [%]
"c1ccc(C(Cc2c[nH]cn2)c2ccccc2)cc1 [Compound 1, 4(5)-(2,2-diphenylethyl)-imidazole]",3160,5.01,50,very active as α2 antagonist agents,17
CC(c1c[nH]cn1)C(c1ccccc1)c1ccccc1 (stereo not shown) [Compound 4],> 3160,316,68,very active as α2 antagonist agents,4
"Cc1cccc(C(Cc2c[nH]cn2)c2ccccc2)c1 (stereo not shown) [Compound 9, 4(5)-{[2-(3-methylphenyl)-2-phenyl]ethyl}imidazole]",2510,15.8,92,very active as α2 antagonist agents,4
Cc1ccccc1C(Cc1c[nH]cn1)c1ccccc1 (stereo not shown) [Compound 12],3980,12.6,78,very active as α2 antagonist agents,0
"Clc1ccccc1C(Cc1c[nH]cn1)c1ccccc1 (stereo not shown) [Compound 13, 4(5)-{[2-(2-chlorophenyl)-2-phenyl]ethyl}imidazole]",3160,10,46,very active as α2 antagonist agents,7
"Fc1ccc(C(Cc2c[nH]cn2)c2ccccc2)cc1 (stereo not shown) [Compound 14, 4(5)-{[2-(4-fluorophenyl)-2-phenyl]ethyl}imidazole]",6310,15.8,82,very active as α2 antagonist agents,0
"Fc1ccc(C(Cc2c[nH]cn2)c2ccccc2F)cc1 (stereo not shown) [Compound 15, 4(5)-{[2-(2-fluorophenyl)-2-(4'-fluorophenyl)]ethyl}imidazole]",5010,15.8,75,very active as α2 antagonist agents,7
Cc1ccc(C)c(C(Cc2c[nH]cn2)c2ccccc2)c1 (stereo not shown) [Compound 16],2000,100,69,–,0
"COc1ccc(C(Cc2c[nH]cn2)c2ccccc2)cc1 (stereo not shown) [Compound 17, 4(5)-{[2-(4-methoxyphenyl)-2-phenyl]ethyl}imidazole]",10000,12.6,26,very active as α2 antagonist agents,6
Cc1ccc(C(Cc2c[nH]cn2)c2ccccc2)cc1 (stereo not shown) [Compound 21],5010,25.1,48,very active as α2 antagonist agents,4
